Data on three compounds can be found in ChEMBL document CHEMBL1201862, “PubChem BioAssay data set” (2004).

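Assay format: 96-well plates, 48-hour exposure. GI50 marks 50% less growth.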 Active and inactive are the calls of the source. Rule as the data show it: active = GI50 up to about 1.1 µM and inactive = higher. Bridge positions count the residues as written; N and C are the ends. Square brackets hold non-standard residues; d marks the D form. Peptide text beside a SMILES is read from it. I, II: the chains in the order shown. * marks the point of attachment. Quinoxaline2carbonyl = O=C(c1cnc2ccccc2n1)*; NMeV = CN[CH](C(=O)O)C(C)C; NMeC = CN[CH](CS)C(=O)O

Test systems include TK-10; RPMI-8226; MDA-MB-435; COLO 205; SF-295; SNB-19; CAKI-1; HCT-116; UO-31; SK-MEL-5; ACHN; LOX IMVI; IGROV-1; OVCAR-3; UACC-62; SW-620; OVCAR-5; RXF 393; UACC-257; SN12C.
Common to all, as to experiment: DTP human tumour cell line panel, 48 h

What is called GI50 is the concentration that inhibits growth by half. As to `NC(Cc1cccc([N+](=O)[O-])c1)C(=O)O` (stereo not given), the GI50 with TK-10, with RPMI-8226, in the assay on MDA-MB-435, with COLO 205, with SF-295 and in the assay on SNB-19 was > 100 µM (inactive) throughout. In addition, the GI50 in the assay on CAKI-1, in the assay on HCT-116, in the assay with UO-31, with SK-MEL-5, in the assay with ACHN and with LOX IMVI was > 100 µM (inactive) throughout. The GI50 in the assay on IGROV-1, in the assay on OVCAR-3, with UACC-62, with SW-620, in the assay with OVCAR-5 and in the assay on RXF 393 was > 100 µM (inactive) in each case. For the same compound, the GI50 in the assay with UACC-257 and in the assay with SN12C was > 100 µM (inactive) in each case.
Turning to `CC1NC(=O)C(NC(=O)c2cnc3ccccc3n2)COC(=O)C(C(C)C)N(C)C(=O)C2CSSCC(C(=O)N(C)C(C(C)C)C(=O)OCC(NC(=O)c3cnc4ccccc4n3)C(=O)NC(C)C(=O)N2C)N(C)C1=O` (stereo not given) (I: Quinoxaline2carbonyl-SA[NMeC][NMeV] / II: Quinoxaline2carbonyl-SA[NMeC][NMeV]; ester I:1-II:C, I:C-II:1; disulfide I:3-II:3; configuration not given here), the concentration for 50% growth inhibition (GI50) in the assay on TK-10, in the assay on RPMI-8226, in the assay on MDA-MB-435, in the assay with COLO 205, in the assay with SF-295 and in the assay on SNB-19 was < 0.01 µM (active) in each case. The GI50 in the assay with CAKI-1 is < 0.01 µM (active); with HCT-116, < 0.01 µM (active); with UO-31, < 0.01 µM (active); with SK-MEL-5, 0.0316 µM (active); in the assay on ACHN, < 0.01 µM (active); with LOX IMVI, < 0.01 µM (active). In addition, the concentration for 50% growth inhibition (GI50) with IGROV-1, with OVCAR-3, with UACC-62, with SW-620, with OVCAR-5 and with RXF 393 was < 0.01 µM (active) each time. Moreover, the GI50 in the assay with UACC-257 and in the assay with SN12C was < 0.01 µM (active) throughout.
Take `COc1ccc(C(=O)Oc2c(C#N)sc3c2c(=O)n(-c2ccccc2)c(=S)n3-c2ccccc2)cc1`: the GI50 in the assay with TK-10 was 28 µM (inactive); in the assay on RPMI-8226 it was 25.2 µM (inactive); with MDA-MB-435 it was 22.7 µM (inactive); with COLO 205 it was 25.8 µM (inactive); in the assay with SF-295, 35.7 µM (inactive); in the assay with SNB-19, 33.2 µM (inactive). Also, the GI50 in the assay on CAKI-1 is 22.3 µM (inactive); in the assay with HCT-116, 18.1 µM (inactive); with UO-31 it was 2.12 µM (inactive); with SK-MEL-5, 21.6 µM (inactive); in the assay with ACHN, 40.7 µM (inactive); in the assay with LOX IMVI, 19.5 µM (inactive). Besides, the GI50 in the assay with IGROV-1 was 19.6 µM (inactive); with OVCAR-3 it was 20.3 µM (inactive); in the assay on UACC-62, 5.66 µM (inactive); in the assay with SW-620 it was 32.7 µM (inactive); in the assay on OVCAR-5, 26.4 µM (inactive); with RXF 393, 21.8 µM (inactive). Also, the GI50 with UACC-257 was 47.5 µM (inactive); with SN12C it was 23.5 µM (inactive).
